In patent US8802597B2, “Herbicidal pyrimidines” (E I du Pont de Nemours and Company, priority 2003, dated 2014):

What was measured:
Format in all cases: in vivo
[1] = test system: barnyardgrass (Echinochloa crus-galli); assay: Test A pre/postemergence
Summary of the method: (§1)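 After planting in loam and sand, species received test chemical as preemergence soil spray; postemergence spray went on 2–10 cm plants at 1–2 leaves at the same time. Evaluation: visual injury, ~10 d, 0 no effect to 100 complete control.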

[2] = test system: velvetleaf (Abutilon theophrasti); assay: Test A pre/postemergence
Summary of the method: as §1

[3] = test system: morningglory (Ipomoea spp.); assay: Test A pre/postemergence
Summary of the method: as §1

[4] = test system: crabgrass (Digitaria sanguinalis); assay: Test A pre/postemergence
Summary of the method: as §1

[5] = test system: redroot pigweed (Amaranthus retroflexus); assay: Test A pre/postemergence
Summary of the method: as §1

[6] = test system: giant foxtail (Setaria faberi); assay: Test A pre/postemergence
Summary of the method: as §1

[7] = test system: barnyardgrass (Echinochloa crus-galli); assay: Test E flooded paddy water application; details: Flood, 21 days, scale 0 to 100 (0 no effect, 100 complete control)
Summary of the method: (§2)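 Response scored visually on a 0–100 scale (100 = complete control) at 21 days against untreated pots. Treatment was into paddy water 3 cm deep over silt loam, with plants at the 2.0–2.5-leaf stage, grown under 16-h light at 29.5/26.7 °C day/night.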

[8] = test system: transplanted rice seedlings (Oryza sativa cv. ‘Japonica-M202’); assay: Test E flooded paddy water application; details: Flood, 21 days, scale 0 to 100 (0 no effect, 100 complete control)
Summary of the method: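 Greenhouse pots of Tama silt loam with weeds and rice at 2.0–2.5-leaf stage, flooded to 3 cm; compounds applied directly into paddy water, depth maintained. Visual rating versus untreated controls after 21 days, 0 (no effect) to 100 (complete control); 29.5/26.7 °C, 16-h photoperiod.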

[9] = test system: rice flatsedge (Cyperus iria); assay: Test E flooded paddy water application; details: Flood, 21 days, scale 0 to 100 (0 no effect, 100 complete control)
Summary of the method: as §2

[10] = test system: purple redstem (Ammannia coccinea); assay: Test E flooded paddy water application; details: Flood, 21 days, scale 0 to 100 (0 no effect, 100 complete control)
Summary of the method: as §2

[11] = test system: ducksalad (Heteranthera limosa); assay: Test E flooded paddy water application; details: Flood, 21 days, scale 0 to 100 (0 no effect, 100 complete control)
Summary of the method: as §2

[12] = test system: junglerice (Echinochloa colona); assay: Test E flooded paddy water application; details: Flood, 21 days, scale 0 to 100 (0 no effect, 100 complete control)
Summary of the method: as §2

[13] = test system: early watergrass (Echinochloa oryzoides); assay: Test E flooded paddy water application; details: Flood, 21 days, scale 0 to 100 (0 no effect, 100 complete control)
Summary of the method: as §2

[14] = test system: late watergrass (Echinochloa oryzicola); assay: Test E flooded paddy water application; details: Flood, 21 days, scale 0 to 100 (0 no effect, 100 complete control)
Summary of the method: as §2

[15] = test system: bearded (brdd.) sprangletop (Leptochloa fusca ssp. fascicularis); assay: Test E flooded paddy water application; details: Flood, 21 days, scale 0 to 100 (0 no effect, 100 complete control)
Summary of the method: as §2

[16] = test system: water seeded rice seedlings (Oryza sativa cv. ‘Japonica-M202’); assay: Test E flooded paddy water application; details: Flood, 21 days, scale 0 to 100 (0 no effect, 100 complete control)
Summary of the method: as §2

[17] = test system: smallflower umbrella sedge (Cyperus difformis); assay: Test E flooded paddy water application; details: Flood, 21 days, scale 0 to 100 (0 no effect, 100 complete control)
Summary of the method: as §2

[18] = Postemergence, 125 g ai/ha, 0 to 100 scale (0 no effect, 100 complete control)
[19] = Postemergence, 500 g ai/ha, 0 to 100 scale (0 no effect, 100 complete control)
[20] = Preemergence, 125 g ai/ha, 0 to 100 scale where 0 is no effect and 100 is complete control, approximately ten days
[21] = Preemergence, 500 g ai/ha, 0 to 100 scale where 0 is no effect and 100 is complete control, approximately ten days

SMILES: CCOC(=O)c1nc(-c2ccc(C)c(C)c2)nc(N)c1Cl [Compound 71]
- Plant response rating, Barnyardgrass [1, 18]: 0
- Plant response rating, Barnyardgrass [1, 19]: 0
- Plant response rating, Barnyardgrass [1, 20]: 0
- Plant response rating, Barnyardgrass [1, 21]: 0
- Plant response rating, Velvetleaf [2, 18]: 40
- Plant response rating, Velvetleaf [2, 19]: 55
- Plant response rating, Velvetleaf [2, 20]: 30
- Plant response rating, Velvetleaf [2, 21]: 50
- Plant response rating, Morningglory [3, 18]: 0
- Plant response rating, Morningglory [3, 19]: 0
- Plant response rating, Morningglory [3, 20]: 0
- Plant response rating, Morningglory [3, 21]: 0
- Plant response rating, Crabgrass [4, 18]: 0
- Plant response rating, Crabgrass [4, 19]: 5
- Plant response rating, Crabgrass [4, 20]: 0
- Plant response rating, Crabgrass [4, 21]: 0
- Plant response rating, Pigweed [5, 18]: 5
- Plant response rating, Pigweed [5, 19]: 30
- Plant response rating, Pigweed [5, 20]: 0
- Plant response rating, Pigweed [5, 21]: 15
- Plant response rating, Foxtail, Giant [6, 18]: 0
- Plant response rating, Foxtail, Giant [6, 19]: 0
- Plant response rating, Foxtail, Giant [6, 20]: 0
- Plant response rating, Foxtail, Giant [6, 21]: 0
- Barnyardgrass plant response rating ([7]; 32 g ai/ha): 0
- Barnyardgrass plant response rating ([7]; 64 g ai/ha): 0
- Barnyardgrass plant response rating ([7]; 125 g ai/ha): 0
- Barnyardgrass plant response rating ([7]; 250 g ai/ha): 60
- Plant response rating, Barnyardgrass ([7]; 16 g ai/ha): 0
- Rice, Transplanted plant response rating ([8]; 32 g ai/ha): 0
- Rice, Transplanted plant response rating ([8]; 64 g ai/ha): 0
- Rice, Transplanted plant response rating ([8]; 125 g ai/ha): 0
- Rice, Transplanted plant response rating ([8]; 250 g ai/ha): 0
- Plant response rating, Rice, Transplanted ([8]; 16 g ai/ha): 0
- Flatsedge, Rice plant response rating ([9]; 32 g ai/ha): 0
- Flatsedge, Rice plant response rating ([9]; 64 g ai/ha): 0
- Flatsedge, Rice plant response rating ([9]; 125 g ai/ha): 0
- Flatsedge, Rice plant response rating ([9]; 250 g ai/ha): 0
- Plant response rating, Flatsedge, Rice ([9]; 16 g ai/ha): 0
- Redstem plant response rating ([10]; 32 g ai/ha): 0
- Redstem plant response rating ([10]; 64 g ai/ha): 0
- Redstem plant response rating ([10]; 125 g ai/ha): 0
- Redstem plant response rating ([10]; 250 g ai/ha): 30
- Plant response rating, Redstem ([10]; 16 g ai/ha): 0
- Ducksalad plant response rating ([11]; 32 g ai/ha): 100
- Ducksalad plant response rating ([11]; 64 g ai/ha): 100
- Ducksalad plant response rating ([11]; 125 g ai/ha): 100
- Ducksalad plant response rating ([11]; 250 g ai/ha): 100
- Plant response rating, Ducksalad ([11]; 16 g ai/ha): 100
- Junglerice plant response rating ([12]; 32 g ai/ha): 0
- Junglerice plant response rating ([12]; 64 g ai/ha): 0
- Junglerice plant response rating ([12]; 125 g ai/ha): 0
- Junglerice plant response rating ([12]; 250 g ai/ha): 45
- Plant response rating, Junglerice ([12]; 16 g ai/ha): 0
- Watergrass, Early plant response rating ([13]; 32 g ai/ha): 0
- Watergrass, Early plant response rating ([13]; 64 g ai/ha): 0
- Watergrass, Early plant response rating ([13]; 125 g ai/ha): 0
- Watergrass, Early plant response rating ([13]; 250 g ai/ha): 0
- Plant response rating, Watergrass, Early ([13]; 16 g ai/ha): 0
- Watergrass, Late plant response rating ([14]; 32 g ai/ha): 0
- Watergrass, Late plant response rating ([14]; 64 g ai/ha): 0
- Watergrass, Late plant response rating ([14]; 125 g ai/ha): 0
- Watergrass, Late plant response rating ([14]; 250 g ai/ha): 0
- Plant response rating, Watergrass, Late ([14]; 16 g ai/ha): 0
- Sprangletop, Brdd. plant response rating ([15]; 32 g ai/ha): 0
- Sprangletop, Brdd. plant response rating ([15]; 125 g ai/ha): 0
- Sprangletop, Brdd. plant response rating ([15]; 250 g ai/ha): 60
- Rice, Water Seeded plant response rating ([16]; 32 g ai/ha): 0
- Rice, Water Seeded plant response rating ([16]; 64 g ai/ha): 0
- Rice, Water Seeded plant response rating ([16]; 125 g ai/ha): 0
- Rice, Water Seeded plant response rating ([16]; 250 g ai/ha): 0
- Plant response rating, Rice, Water Seeded ([16]; 16 g ai/ha): 0
- Sedge, Umbrella plant response rating ([17]; 32 g ai/ha): 0
- Sedge, Umbrella plant response rating ([17]; 64 g ai/ha): 0
- Sedge, Umbrella plant response rating ([17]; 125 g ai/ha): 30
- Sedge, Umbrella plant response rating ([17]; 250 g ai/ha): 70
- Plant response rating, Sedge, Umbrella ([17]; 16 g ai/ha): 0
